In ChEMBL document CHEMBL1828583, “Discovery process and pharmacological characterization of a novel dual orexin 1 and orexin 2 receptor antagonist useful for treatment of sleep disorders” (Bioorg Med Chem Lett, 2011):
Calls of active or inactive are those of the source. The calls are words filed in the database; no cut-off is given here.

What was measured:
[1] = target: T1, Orexin/Hypocretin receptor type 1 (Homo sapiens, UniProt O43613); test: Antagonist activity at recombinant human OX1R expressed in CHO cells by FLIPR calcium based functional assay; assay type: cell-based
T1 sequence (O43613 whole entry): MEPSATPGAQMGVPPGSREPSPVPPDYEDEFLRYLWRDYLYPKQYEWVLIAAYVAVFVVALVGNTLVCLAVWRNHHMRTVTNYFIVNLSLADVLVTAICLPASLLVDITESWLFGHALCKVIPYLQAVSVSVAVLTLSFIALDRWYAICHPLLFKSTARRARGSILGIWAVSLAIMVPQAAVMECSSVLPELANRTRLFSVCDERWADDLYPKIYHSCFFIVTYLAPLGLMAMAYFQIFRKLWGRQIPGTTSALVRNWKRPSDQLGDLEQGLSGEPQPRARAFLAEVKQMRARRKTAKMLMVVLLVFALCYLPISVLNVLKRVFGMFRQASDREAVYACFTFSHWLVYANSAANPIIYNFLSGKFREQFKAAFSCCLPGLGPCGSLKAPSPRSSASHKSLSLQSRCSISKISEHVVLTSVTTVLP

[2] = target: T2, Orexin receptor type 2 (Homo sapiens, UniProt O43614); test: Antagonist activity at recombinant human OX2R expressed in CHO cells by FLIPR calcium based functional assay; assay type: cell-based
T2 sequence (O43614 whole entry): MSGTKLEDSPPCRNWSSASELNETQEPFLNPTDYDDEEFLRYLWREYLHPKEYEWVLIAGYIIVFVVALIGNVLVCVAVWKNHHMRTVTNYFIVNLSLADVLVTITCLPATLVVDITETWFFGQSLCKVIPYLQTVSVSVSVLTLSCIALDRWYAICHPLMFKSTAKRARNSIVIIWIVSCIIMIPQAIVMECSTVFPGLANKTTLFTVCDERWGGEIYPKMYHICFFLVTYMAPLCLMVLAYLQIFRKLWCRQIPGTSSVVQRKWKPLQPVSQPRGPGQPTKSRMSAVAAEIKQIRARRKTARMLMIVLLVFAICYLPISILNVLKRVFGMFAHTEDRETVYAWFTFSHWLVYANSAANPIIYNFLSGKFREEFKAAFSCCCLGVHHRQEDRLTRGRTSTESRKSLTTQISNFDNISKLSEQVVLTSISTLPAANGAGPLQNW

[3] = tested on: Liver microsomes; test: Intrinsic clearance in human liver microsomes; assay type: ADME, Microsome
[4] = tested on: Rattus norvegicus; test: Neurotoxicity in CD rat assessed as impairment of motor coordination at 1 to 10 mg/kg, po by rotarod test; assay type: toxicity, organism-based; set-up: dose 1-10 mg/kg, route oral; conditions: in vivo
[5] = tested on: Rattus norvegicus; test: Neurotoxicity in CD rat assessed as impairment of motor coordination at 1 to 10 mg/kg, po by rotarod test in presence of 1 g/kg, ip ethanol; assay type: toxicity, organism-based; set-up: dose 1-10 mg/kg, route oral; conditions: in vivo
[6] = tested on: Rattus norvegicus; test: In vivo antagonist activity at OX1R in CD rat assessed as reduction of OX-A induced grooming dosed orally 3 hrs before OX-A injection measured after 1 hrs; assay type: functional, organism-based
[7] = tested on: Rattus norvegicus; test: Hypnotic activity in CD rat Circadian time model assessed as rapid eye movement sleep at 30 mg/kg, po administered during active phase measured from starting time CT18 (reference value: 3.22 +/- 0.73 mins); assay type: functional
[8] = Cmax in CD rat at 1 mg/kg, iv and 3 mg/kg, po; assay type: ADME, organism-based; conditions: in vivo
[9] = target: T3, Orexin/Hypocretin receptor type 1 (Homo sapiens) (UniProt O43613); test: Agonist activity at recombinant human OX1R expressed in CHO cells at 1 uM; assay type: functional, cell-based
T3 sequence (whole entry): T1 sequence (O43613 whole entry)

[10] = tested on: Rattus norvegicus; test: Hypnotic activity in CD rat Circadian time model assessed as non-rapid eye movement latency period at 30 mg/kg, po administered during active phase measured from starting time CT18 (reference value: 46.1 +/- 10.0 mins); assay type: functional
[11] = tested on: Rattus norvegicus; test: Hypnotic activity in CD rat Circadian time model assessed as non-rapid eye movement sleep at 10 mg/kg, po administered during active phase measured from starting time CT18 (reference value: 78.1 +/- 11.3 mins); assay type: functional
[12] = tested on: Rattus norvegicus; test: Hypnotic activity in po dosed CD rat Circadian time model assessed as rapid eye movement sleep administered during active phase measured from starting time CT18; assay type: functional, organism-based
[13] = Oral bioavailability in CD rat at 3 mg/kg; assay type: ADME, organism-based; conditions: in vivo
[14] = tested on: Rattus norvegicus; test: Hypnotic activity in CD rat Circadian time model assessed as awake period at 3 mg/kg, po administered during active phase measured from starting time CT18 (reference value: 218 +/- 11.32 mins); assay type: functional
[15] = tested on: Rattus norvegicus; test: Hypnotic activity in CD rat Circadian time model assessed as total sleep time at 10 mg/kg, po administered during active phase (reference value: 81 +/- 11 mins); assay type: functional
[16] = Fraction unbound in CD rat plasma at 1 mg/kg, iv after 1 hrs; assay type: ADME, organism-based; set-up: dose 1 mg/kg, route intravenous
[17] = Volume of distribution at steady state in CD rat at 1 mg/kg, iv and 3 mg/kg, po; assay type: ADME, organism-based; conditions: in vivo, read-out: Vdss
[18] = tested on: Rattus norvegicus; test: Hypnotic activity in CD rat Circadian time model assessed as non-rapid eye movement latency period at 10 mg/kg, po administered during active phase measured from starting time CT18 (reference value: 46.1 +/- 10.0 mins); assay type: functional
[19] = Half life in CD rat at 1 mg/kg, iv and 3 mg/kg, po; assay type: ADME, organism-based; conditions: in vivo
[20] = target: T4, Orexin receptor type 2 (Rattus norvegicus, UniProt P56719); test: Antagonist activity at recombinant rat OX2R expressed in CHO cells by FLIPR calcium based functional assay; assay type: cell-based
T4 sequence (P56719 whole entry): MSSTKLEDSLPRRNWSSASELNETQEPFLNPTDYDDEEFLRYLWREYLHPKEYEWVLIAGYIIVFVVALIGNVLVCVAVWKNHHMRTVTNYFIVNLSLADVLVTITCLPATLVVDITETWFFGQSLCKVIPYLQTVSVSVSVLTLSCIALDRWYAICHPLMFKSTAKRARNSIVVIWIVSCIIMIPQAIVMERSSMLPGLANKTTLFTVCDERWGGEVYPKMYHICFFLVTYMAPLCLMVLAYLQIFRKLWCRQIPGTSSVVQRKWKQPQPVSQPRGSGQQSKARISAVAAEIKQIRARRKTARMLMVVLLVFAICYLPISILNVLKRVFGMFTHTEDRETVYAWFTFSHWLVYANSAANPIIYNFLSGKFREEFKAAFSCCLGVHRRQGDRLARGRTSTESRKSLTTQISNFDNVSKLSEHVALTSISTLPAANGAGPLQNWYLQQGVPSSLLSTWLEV

[21] = tested on: Rattus norvegicus; test: Hypnotic activity in CD rat Circadian time model assessed as non-rapid eye movement sleep at 30 mg/kg, po administered during active phase measured from starting time CT18 (reference value: 78.1 +/- 11.3 mins); assay type: functional
[22] = tested on: Rattus norvegicus; test: Hypnotic activity in CD rat Circadian time model assessed as rapid eye movement sleep at 3 mg/kg, po administered during active phase measured from starting time CT18 (reference value: 3.22 +/- 0.73 mins); assay type: functional
[23] = tested on: Rattus norvegicus; test: Hypnotic activity in CD rat Circadian time model assessed as awake period at 30 mg/kg, po administered during active phase measured from starting time CT18 (reference value: 218 +/- 11.32 mins); assay type: functional
[24] = Fraction unbound in CD rat brain at 1 mg/kg, iv after 1 hrs; assay type: ADME, organism-based; set-up: dose 1 mg/kg, route intravenous
[25] = tested on: Rattus norvegicus; test: Hypnotic activity in CD rat Circadian time model assessed as rapid eye movement latency period at 10 mg/kg, po administered during active phase measured from starting time CT18 (reference value: 146.3 +/- 54.2 mins); assay type: functional
[26] = Plasma clearance in CD rat at 1 mg/kg, iv and 3 mg/kg, po; assay type: ADME, organism-based
[27] = tested on: Rattus norvegicus; test: Hypnotic activity in CD rat Circadian time model assessed as rapid eye movement sleep at 10 mg/kg, po administered during active phase measured from starting time CT18 (reference value: 3.22 +/- 0.73 mins); assay type: functional
[28] = target: T5, Orexin/Hypocretin receptor type 1 (Rattus norvegicus, UniProt P56718); test: Antagonist activity at recombinant rat OX1R expressed in CHO cells by FLIPR calcium based functional assay; assay type: cell-based
T5 sequence (P56718 whole entry): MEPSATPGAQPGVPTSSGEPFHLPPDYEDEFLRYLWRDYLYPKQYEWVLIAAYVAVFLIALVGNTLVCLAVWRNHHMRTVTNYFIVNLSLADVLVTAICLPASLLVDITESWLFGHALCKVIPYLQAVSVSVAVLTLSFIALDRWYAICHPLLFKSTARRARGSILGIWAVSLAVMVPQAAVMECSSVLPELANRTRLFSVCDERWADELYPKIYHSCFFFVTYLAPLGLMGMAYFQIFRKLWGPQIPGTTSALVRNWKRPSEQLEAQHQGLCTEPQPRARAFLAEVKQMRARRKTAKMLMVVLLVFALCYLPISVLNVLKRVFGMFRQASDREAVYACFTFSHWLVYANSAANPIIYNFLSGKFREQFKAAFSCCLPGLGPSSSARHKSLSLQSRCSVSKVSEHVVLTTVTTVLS

[29] = tested on: Rattus norvegicus; test: Hypnotic activity in po dosed CD rat Circadian time model assessed as non-rapid eye movement latency period during active phase measured from starting time CT18; assay type: functional, organism-based
[30] = target: T1, Orexin/Hypocretin receptor type 1; test: Displacement of [3H]almorexant from recombinant human OX1R expressed in CHO cells; assay type: cell-based
[31] = tested on: Rattus norvegicus; test: Hypnotic activity in po dosed CD rat Circadian time model assessed as non-rapid eye movement sleep administered during active phase measured from starting time CT18; assay type: functional, organism-based
[32] = tested on: Rattus norvegicus; test: Hypnotic activity in CD rat Circadian time model assessed as awake period at 10 mg/kg, po administered during active phase measured from starting time CT18 (reference value: 218 +/- 11.32 mins); assay type: functional
[33] = tested on: Rattus norvegicus; test: Hypnotic activity in CD rat Circadian time model assessed as non-rapid eye movement latency period at 3 mg/kg, po administered during active phase measured from starting time CT18 (reference value: 46.1 +/- 10.0 mins); assay type: functional
[34] = tested on: Rattus norvegicus; test: Hypnotic activity in CD rat Circadian time model assessed as non-rapid eye movement sleep at 3 mg/kg, po administered during active phase measured from starting time CT18 (reference value: 78.1 +/- 11.3 mins); assay type: functional
[35] = target: T6, Orexin/Hypocretin receptor type 1 (Rattus norvegicus) (UniProt P56718); test: Agonist activity at recombinant rat OX1R expressed in CHO cells at 1 uM; assay type: functional, cell-based
T6 sequence (whole entry): T5 sequence (P56718 whole entry)

[36] = tested on: Rattus norvegicus; test: Hypnotic activity in CD rat Circadian time model assessed as rapid eye movement latency period at 3 mg/kg, po administered during active phase measured from starting time CT18 (reference value: 146.3 +/- 54.2 mins); assay type: functional
[37] = Ratio of drug level in brain to blood in CD rat at 1 mg/kg, iv after 1 hrs; assay type: ADME, organism-based; set-up: dose 1 mg/kg, route intravenous; conditions: read-out: BBR
[38] = tested on: Rattus norvegicus; test: Hypnotic activity in CD rat Circadian time model assessed as rapid eye movement latency period at 30 mg/kg, po administered during active phase measured from starting time CT18 (reference value: 146.3 +/- 54.2 mins); assay type: functional
[39] = tested on: Rattus norvegicus; test: Hypnotic activity in po dosed CD rat Circadian time model assessed as total sleep time measured during active phase after 5 hrs; assay type: functional, organism-based
[40] = target: T2, Orexin receptor type 2; test: Displacement of [3H]almorexant from recombinant human OX2R expressed in CHO cells; assay type: cell-based

Compound: O=C(NC[C@@H]1CCCCN1C(=O)c1ccccc1-c1ccccc1)Nc1ccccc1
- Ki [1]: 1 nM
- Ki [2]: 5.01 nM

Compound: O=C(NC[C@@H]1CCCCN1C(=O)c1ccccc1-c1ccccc1)c1ccccc1
- Ki [1]: 7.94 nM
- Ki [2]: 20 nM

Compound: O=C(NC[C@@H]1CCCCN1C(=O)c1ccccc1-c1ccccc1)c1ccc(F)cc1
- CL [3]: 23 mL/min/g
- Ki [1]: 0.126 nM
- Ki [2]: 0.251 nM

Compound: O=C(c1cccc2ccccc12)N1CCCC[C@H]1CCOc1ccc(F)cc1
- Ki [1]: 6.31 nM
- Ki [2]: 126 nM

Compound: O=C(C[C@@H]1CCCCN1C(=O)c1ccccc1-c1ccccc1)Nc1ccccc1
- Ki [1]: 50.1 nM
- Ki [2]: 31.6 nM

Compound: Cc1ccc(-c2nc3ccc(C)cn3c2CC(=O)N(C)C)cc1 [ZOLPIDEM]
- Activity [4]: Toxic
- Activity [5]: Toxic

Compound: Cc1nc(C(=O)N2CCCC[C@H]2CNC(=O)c2cccc3occc23)c(-c2ccc(F)cc2)s1 [SB-649868]
- Activity [6]: Dose-dependent effect
- Time [7]: 24.1 min
- Cmax [8]: 333 ng/mL
- Activity [4]: Non-toxic
- Activity [9]: inactive
- Time [10]: 8.3 min
- Time [11]: 165.2 min
- Activity [12]: Dose-dependent effect
- bioavailability [13]: 85%
- Activity [5]: Non-toxic
- Time [14]: 194 min
- Time [15]: 182 min
- fraction unbound at 1 h [16]: 0.0134
- Vd [17]: 1.1 L/kg
- Time [18]: 11.6 min
- CL [3]: 15.1 mL/min/g
- half-life [19]: < 36 min
- Ki [20]: 0.0776 nM
- Time [21]: 186.6 min
- Time [22]: 6.5 min
- Time [23]: 87 min
- fraction unbound at 1 h [24]: 0.0528
- Time [25]: 26.6 min
- clearance [26]: 24 mL/min/kg
- Time [27]: 17.7 min
- Ki [28]: 0.117 nM
- Activity [29]: Dose-dependent effect
- Ki [30]: 0.759 nM
- Activity [31]: Dose-dependent effect
- Time [32]: 117 min
- Time [33]: 19 min
- Time [34]: 99.3 min
- Activity [35]: inactive
- Time [36]: 30.1 min
- Kp at 1 h [37]: 0.1
- Time [38]: 13.8 min
- Activity [39]: Dose-dependent effect
- Ki [40]: 1.29 nM

Compound: COc1cccc(C(=O)N2CCCCC2CCOc2ccc(Cl)c(Cl)c2)c1 (racemic)
- Ki [1]: 126 nM
- Ki [2]: 501 nM
